Laboratory results: ChEMBL document CHEMBL5108044, “Discovery of a Novel Potent STAT3 Inhibitor HP590 with Dual p-Tyr705/Ser727 Inhibitory Activity for Gastric Cancer Treatment” (J Med Chem, 2022)
Activity calls are given as the source filed them. No cut-off for these calls is given here.

Legend:
[1] = target: T1, Signal transducer and activator of transcription 3 (Homo sapiens, UniProt P40763); assay: Inhibition of human recombinant STAT3 (127 to 722 residues) transcriptional activity expressed in HEK293T cells in presence of IL-6 by Dual-luciferase reporter gene assay; format: cell-based
T1 sequence (P40763 whole entry, the tested form may be a part): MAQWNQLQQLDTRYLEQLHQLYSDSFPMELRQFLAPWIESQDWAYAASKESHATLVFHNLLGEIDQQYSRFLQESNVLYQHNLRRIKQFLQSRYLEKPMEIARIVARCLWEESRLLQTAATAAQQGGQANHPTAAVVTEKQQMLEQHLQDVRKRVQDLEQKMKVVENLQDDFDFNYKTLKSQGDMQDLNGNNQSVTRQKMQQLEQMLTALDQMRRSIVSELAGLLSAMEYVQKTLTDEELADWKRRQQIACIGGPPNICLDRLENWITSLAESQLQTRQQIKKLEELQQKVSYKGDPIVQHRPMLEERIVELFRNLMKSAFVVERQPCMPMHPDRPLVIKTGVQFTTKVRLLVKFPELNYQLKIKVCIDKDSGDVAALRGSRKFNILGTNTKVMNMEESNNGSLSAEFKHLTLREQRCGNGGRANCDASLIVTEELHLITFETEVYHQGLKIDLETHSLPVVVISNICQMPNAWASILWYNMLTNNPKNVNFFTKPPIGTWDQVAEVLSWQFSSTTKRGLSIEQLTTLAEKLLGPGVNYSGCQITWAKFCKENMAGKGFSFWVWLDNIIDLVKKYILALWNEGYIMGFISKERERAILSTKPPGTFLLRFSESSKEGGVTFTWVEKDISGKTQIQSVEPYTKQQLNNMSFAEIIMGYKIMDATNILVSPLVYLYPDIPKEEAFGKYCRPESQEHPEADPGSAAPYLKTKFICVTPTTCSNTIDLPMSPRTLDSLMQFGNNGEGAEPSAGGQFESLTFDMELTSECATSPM

AGS [2] = assay: Antiproliferative activity against human AGS cells assessed as reduction in cell viability incubated for 72 hrs by MTS assay; format: functional, cell-based
[3] = target: T1, Signal transducer and activator of transcription 3; assay: Inhibition of STAT3 phosphorylation at Tyr705 residue in human MGC-803 cells upto 40 nM incubated upto 24 hrs by Western blotting analysis; format: cell-based
[4] = target: T1, Signal transducer and activator of transcription 3; assay: Inhibition of STAT3 phosphorylation at Ser727 residue in human MKN-45 cells incubated upto 24 hrs by Western blotting analysis; format: cell-based; conditions: dose <= 40.0 nM, DDE = dose-dependent effect
[5] = target: T1, Signal transducer and activator of transcription 3; assay: Inhibition of STAT3 phosphorylation at Ser727 residue in human AGS cells incubated upto 24 hrs by Western blotting analysis; format: cell-based; conditions: dose <= 40.0 nM, DDE = dose-dependent effect
[6] = target: T1, Signal transducer and activator of transcription 3; assay: Inhibition of STAT3 phosphorylation at Ser727 residue in human MGC-803 cells incubated upto 24 hrs by Western blotting analysis; format: cell-based; conditions: dose <= 40.0 nM, DDE = dose-dependent effect
[7] = target: T1, Signal transducer and activator of transcription 3; assay: Inhibition of STAT3 phosphorylation at Tyr705 residue in human AGS cells incubated upto 24 hrs by Western blotting analysis; format: cell-based; conditions: dose <= 40.0 nM, DDE = dose-dependent effect
[8] = target: T1, Signal transducer and activator of transcription 3; assay: Binding affinity to human STAT3-SH2 domain (127 to 722 residues) assessed as dissociation constant by MST assay
[9] = target: T1, Signal transducer and activator of transcription 3; assay: Binding affinity to human STAT3 transfected in MKN-45 cells assessed as change in melting temperature at 5 uM by thermal shift assay; format: cell-based
[10] = target: Mitogen-activated protein kinase 3 (Homo sapiens, UniProt P27361); assay: Inhibition of ERK1 (unknown origin)
Mitogen-activated protein kinase 3, sequence (P27361 whole entry): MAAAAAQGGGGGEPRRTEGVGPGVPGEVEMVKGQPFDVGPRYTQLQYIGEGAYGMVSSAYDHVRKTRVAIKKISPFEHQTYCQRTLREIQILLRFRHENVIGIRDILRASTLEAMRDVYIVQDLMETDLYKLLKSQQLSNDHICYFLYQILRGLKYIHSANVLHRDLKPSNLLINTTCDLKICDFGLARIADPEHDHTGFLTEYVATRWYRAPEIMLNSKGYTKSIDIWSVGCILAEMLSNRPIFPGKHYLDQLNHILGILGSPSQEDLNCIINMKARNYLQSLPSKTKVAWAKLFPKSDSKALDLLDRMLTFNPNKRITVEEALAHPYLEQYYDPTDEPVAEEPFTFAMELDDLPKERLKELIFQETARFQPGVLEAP

[11] = target: T2, Mitogen-activated protein kinase 13 (Homo sapiens, UniProt O15264); assay: Inhibition of p38delta (unknown origin)
T2 sequence (O15264 whole entry): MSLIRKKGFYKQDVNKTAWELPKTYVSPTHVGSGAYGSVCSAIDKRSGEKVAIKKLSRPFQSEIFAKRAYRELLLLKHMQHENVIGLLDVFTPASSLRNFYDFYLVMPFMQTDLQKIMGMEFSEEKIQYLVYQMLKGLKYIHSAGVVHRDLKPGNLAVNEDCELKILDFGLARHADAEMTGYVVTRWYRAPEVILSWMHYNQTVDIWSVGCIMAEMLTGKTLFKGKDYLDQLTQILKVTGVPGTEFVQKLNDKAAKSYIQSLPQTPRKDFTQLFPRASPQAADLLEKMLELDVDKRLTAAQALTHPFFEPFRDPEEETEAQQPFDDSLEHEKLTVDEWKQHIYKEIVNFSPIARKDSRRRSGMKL

[12] = target: T1, Signal transducer and activator of transcription 3; assay: Inhibition of STAT3 in human AGS cells assessed as downregulation of c-Myc expression incubated up to 24 hrs by western blot analysis; format: cell-based; conditions: dose <= 40.0 nM, DDE = dose-dependent effect
[13] = target: T1, Signal transducer and activator of transcription 3; assay: Inhibition of STAT3 in human AGS cells assessed as downregulation of cyclin D1 expression incubated up to 24 hrs by western blot analysis; format: cell-based; conditions: dose <= 40.0 nM, DDE = dose-dependent effect
[14] = target: T1, Signal transducer and activator of transcription 3; assay: Inhibition of STAT3 in human GES1cells assessed as downregulation of c-myc expression at 10 to 40 nM incubated for 24 hrs by RT-PCR analysis; format: cell-based; conditions: GES1, dose 10-40 nM
[15] = target: T1, Signal transducer and activator of transcription 3; assay: Inhibition of phosphorylated STAT3 nuclear translocation at Tyr705 residue in human MKN-45 cells measured at 5 to 40 nM by immunoblotting analysis; format: cell-based; conditions: dose 5-40 nM
MKN-45 [16] = assay: Inhibition of mitochondrial respiration in human MKN-45 cells assessed as maximal oxygen consumption rate at 1 to 100 nM incubated for 1 hr by Seahorse XF24 extracellular flux analyzer; format: functional, cell-based; conditions: dose 1-100 nM
NIH3T3 = assay: Antiproliferative activity against […] cells assessed as cell viability measured upto 1 uM incubated for 72 hrs by MTS assay; format: toxicity, cell-based; conditions: mouse, nih3t3, 72 h
MGC-803 = assay: Inhibition of colony formation in human MGC-803 cells assessed as reduction in number of colonies incubated for 5 to 7 days by crystal violet staining based assay; format: functional, cell-based; conditions: dose <= 20.0 nM, time 5-7 day, DDE = dose-dependent effect
AGS [17] = assay: Induction of apoptosis in human AGS cells assessed as viable cells at 20 nM incubated for 48 hrs by FITC-annexin V/propidium iodide staining based flow cytometry (reference value: 87.2%); format: functional; conditions: read-out: Activity
MKN-45 [18] = assay: Induction of apoptosis in human MKN-45 cells assessed as late apoptic cells 5 nM incubated for 48 hrs by FITC-annexin V/propidium iodide staining based flow cytometry (reference value: 17.9%); format: functional
AGS [19] = assay: Induction of apoptosis in human AGS cells assessed as early apoptic cells 5 nM incubated for 48 hrs by FITC-annexin V/propidium iodide staining based flow cytometry (reference value: 0.55%); format: functional
AGS [20] = assay: Induction of apoptosis in human AGS cells assessed as late apoptic cells 5 nM incubated for 48 hrs by FITC-annexin V/propidium iodide staining based flow cytometry (reference value: 9.56%); format: functional
AGS [21] = assay: Induction of apoptosis in human AGS cells assessed as viable cells at 10 nM incubated for 48 hrs by FITC-annexin V/propidium iodide staining based flow cytometry (reference value: 87.2%); format: functional; conditions: read-out: Activity
AGS [22] = assay: Induction of apoptosis in human AGS cells assessed as early apoptic cells 10 nM incubated for 48 hrs by FITC-annexin V/propidium iodide staining based flow cytometry (reference value: 0.55%); format: functional
AGS [23] = assay: Induction of apoptosis in human AGS cells assessed as late apoptic cells 10 nM incubated for 48 hrs by FITC-annexin V/propidium iodide staining based flow cytometry (reference value: 9.56%); format: functional
AGS [24] = assay: Induction of apoptosis in human AGS cells assessed as necrotic cells 10 nM incubated for 48 hrs by FITC-annexin V/propidium iodide staining based flow cytometry (reference value: 2.70%); format: functional
[25] = Cmax in ICR mouse plasma at 10 mg/kg, po measured up to 24 hrs by LC-MS/MS analysis; format: ADME, organism-based; parameters: dose 10 mg/kg, time < 24 hrs, route po
[26] = Volume of distribution at steady state in ICR mouse plasma at 1 mg/kg, iv measured up to 24 hrs by LC-MS/MS analysis; format: ADME, organism-based; conditions: read-out: Vdss
[27] = Oral bioavailability in ICR mouse plasma at 10 mg/kg measured up to 24 hrs by LC-MS/MS analysis; format: ADME, organism-based
AGS [28] = assay: Potency index, ratio of IC50 for BBI608 to IC50 for test compound for antiproliferative activity against human AGS cells assessed as reduction in cell viability incubated for 72 hrs by MTS assay; format: functional
MKN-45 [29] = assay: Antitumor activity against human MKN-45 cells xenografted in BALB/c nude mouse assessed as decrease in tumor volume at 25 mg/kg, po qd measured for 5 weeks; format: functional, organism-based
[30] = Toxicity in […] mouse xenografted with human MKN-45 cells assessed as kidney damage at 25 to 50 mg/kg, po qd administered for 5 weeks by H and E staining based analysis; format: organism-based; conditions: in vivo, 840 h, dose 25-50 mg/kg
MKN-45 [31] = assay: Inhibition of STAT3 mediated oxidative phosphorylation at Ser727 residue in human MKN-45 cells assessed as reduction in oxidative phosphorylation at less than 40 nM incubated for 1 hr by Seahorse XF24 extracellular flux analyzer; format: functional, cell-based

O=C(c1ccc(-c2noc(-c3ccc(C(F)(F)F)cc3)n2)cc1)N1CCN(Cc2ccc(OCC(F)(F)F)cc2)CC1
IC50 [1]: 27.8 nM | IC50 (AGS [2]): 13.5 nM | inhibition [3]: 100% | inhibition [4]: Dde | inhibition [5]: Dde | inhibition [6]: Dde | inhibition [7]: Dde | Kd [8]: 114 nM | Activity [9]: Active | IC50 [10]: > 10000 nM | IC50 [11]: > 10000 nM | inhibition [12]: Dde | inhibition [13]: Dde | inhibition [14]: Active | inhibition [15]: Active | inhibition (MKN-45 [16]): Active | Activity (NIH3T3): Non-Toxic | inhibition (MGC-803): Dde | viability at 0.02 µM (AGS [17]): 50.3% | Activity (MKN-45 [18]): 17.1% | Activity (AGS [19]): 2.7% | Activity (AGS [20]): 7.61% | viability at 0.01 µM (AGS [21]): 82.3% | Activity (AGS [22]): 2.57% | Activity (AGS [23]): 10.4% | Activity (AGS [24]): 4.79% | Cmax [25]: 529 ng/mL | Vd [26]: 6.56 L/kg | bioavailability [27]: 54.4% | Ratio IC50 (AGS [28]): 30 | Activity (MKN-45 [29]): Active | Activity [30]: Non-Toxic | inhibition (MKN-45 [31]): Active
